Like-named read-outs stand apart in the source and are kept apart here.
Columns and labels:
[1] = target: T1, glucocorticoid receptor (Homo sapiens, UniProt P04150); assay: Glucocorticoid Receptor Binding Assay (fluorescence polarisation, displacement of Alexa 555 labelled dexamethasone derivative); settings: at least once in this assay; read-out: glucocorticoid binding pIC50 (converted)
T1 construct: a partially purified full length glucocorticoid receptor
T1 sequence (P04150 1-777): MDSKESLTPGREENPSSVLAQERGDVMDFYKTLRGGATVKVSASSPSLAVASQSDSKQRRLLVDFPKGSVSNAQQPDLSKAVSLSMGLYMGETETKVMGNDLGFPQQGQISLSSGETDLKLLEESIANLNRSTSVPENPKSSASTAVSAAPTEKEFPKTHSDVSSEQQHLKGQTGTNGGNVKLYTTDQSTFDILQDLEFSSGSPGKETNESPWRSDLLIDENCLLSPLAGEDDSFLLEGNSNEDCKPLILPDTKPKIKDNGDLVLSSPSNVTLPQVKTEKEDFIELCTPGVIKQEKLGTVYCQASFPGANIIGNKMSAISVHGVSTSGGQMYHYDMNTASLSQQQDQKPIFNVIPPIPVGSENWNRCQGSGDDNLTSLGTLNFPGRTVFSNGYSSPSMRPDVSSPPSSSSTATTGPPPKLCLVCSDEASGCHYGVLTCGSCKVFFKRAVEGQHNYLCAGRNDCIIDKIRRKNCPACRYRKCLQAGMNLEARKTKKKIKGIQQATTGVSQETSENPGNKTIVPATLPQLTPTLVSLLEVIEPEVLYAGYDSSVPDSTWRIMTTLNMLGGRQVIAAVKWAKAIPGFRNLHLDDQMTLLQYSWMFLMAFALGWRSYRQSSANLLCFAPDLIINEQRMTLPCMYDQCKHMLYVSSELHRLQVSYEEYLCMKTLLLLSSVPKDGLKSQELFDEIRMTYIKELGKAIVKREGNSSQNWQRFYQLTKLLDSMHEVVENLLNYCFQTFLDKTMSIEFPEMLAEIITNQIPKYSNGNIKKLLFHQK
Procedure: Compounds were solvated and diluted in DMSO, and transferred directly into assay plates. Fluorescent dexamethasone and a partially purified full length glucocorticoid receptor were added to the plates, together with buffer components to stabilise the GR protein and incubated at room temperature for 2 hr in the dark. Binding of each compound was assessed by analysing the displacement of fluorescent ligand by measuring the decrease in fluorescence polarisation signal from the mixture.

[2] = target: T2, GR (Homo sapiens, UniProt P04150); assay: GR Functional Assay - NFκB Assay (A549 SPAP cells, TNFα stimulated); format: cell-based; settings: for Emax: agonists, read-out: average maximum asymptote in the NFkB assay
T2 construct: endogenous in cells; host or cells: A549 (human lung carcinoma, ECACC No. 86012804), stably transfected with reporter plasmids only
T2 sequence (P04150 1-777): T1 sequence (P04150 1-777)
Procedure: Stimulation of the cell line with TNFα results in intracellular signal transduction and ultimately translocation of NFκB into the nucleus. This activates the inserted DNA sequence resulting in transcription of the integrated SPAP gene, which is quantified using a calorimetric assay. […] The stably transfected cell line was grown as a monolayer in DMEM supplemented with FCS-HI (10%), Non-essential amino acids (1%), L-Glutamine (2 mM), Pen/Strep (1%) and Geneticin (50 mg/ml).
A 70% confluent T225 flask of A549 SPAP cells was harvested by centrifugation for 5 mins at 200 g, resuspended in assay buffer (DMEM supplemented with 10% FCS 2×HI, 2 mM L-Glutamine, 1% Pen/Strep and Non essential amino acids) and diluted to 0.16×10^6/ml. 60 μl of cell solution was dispensed to each well of clear Nunc 384-well plates, containing compound at the required concentration. […] Plates were equilibrated to room temperature for 1 hr prior to the addition of 25 μl of pNPP buffer (1M Diethanolamine pH 9.8, 0.5 mM MgCl2, 0.28M NaCl, 2 mg/ml pNPP) to each well of assay plates.

[3] = target: T2, GR; assay: GR Agonist Assay - MMTV Assay (A549 MMTV cells, renilla luciferase reporter); format: cell-based; settings: 6 h, agonists, read-out: average maximum asymptote in the MMTV agonist assay
Procedure: Stimulation of the cell line with GR agonists results in intracellular signal transduction and ultimately translocation of GR into the nucleus. This activates the inserted DNA sequence resulting in transcription of the integrated luciferase gene, which is quantified using a light emission. The stably transfected cell line was grown as a monolayer in DMEM supplemented with FCS-HI (10%), Non-essential amino acids (1%), L-Glutamine (2 mM), Pen/Strep (1%) and Geneticin (50 mg/ml).
A 90% confluent T175 flask of A549 MMTV cells was harvested by centrifugation for 5 min at 200 g, resuspended in assay buffer (DMEM supplemented with 10% FCS 2×HI, 2 mM Glutamax, Non essential amino acids and 25 mM HEPES) and diluted to 0.1×10^6/ml. 70 μl of cell solution was dispensed to each well of white Nunc 384-well plates, containing compound at the required concentration. […] The plates were covered to protect the reagents from light, and then incubated at room temperature for approximately 15 mins before reading them on a Viewlux.

[4] = at least once in the NFkB assay, A549 SPAP cells, read-out: pIC50 in the NFkB assay (converted)
[5] = at least once, examples listed as agonists in NFkB and MMTV assays, read-out: potency pIC50 in the NFKB assay (converted)

SMILES | IC50 [1] | Emax ([2]; A549 SPAP cells) | IC50 [2, 4] | IC50 [2, 5] | Emax [3]
CCN(CC(O)(CNC(=O)c1cnn(-c2ccc(F)cc2)c1N)C(F)(F)F)C(=O)c1cccc(F)c1Cl (racemic) [Example 18 (racemic), 5-amino-N-(2-{[[(2-chloro-3-fluorophenyl)car-bonyl](ethyl)amino]methyl}-3,3,3-trifluoro-2-hydroxypropyl)-1-(4-fluorophenyl)-1H-pyrazole-4-carboxamide] | < 1000 nM | ≥ 40% | < 1000 nM | < 316 nM | ≥ 40%
CCN(CC(O)(CNC(=O)c1cnn(-c2ccc(F)cc2)c1N)C(F)(F)F)C(=O)c1cccc(C(F)(F)F)c1 (racemic) [Example 20 (racemic), 5-amino-N-{2-[(ethyl{[3-(trifluoromethyl)phenyl]carbonyl}amino)methyl]-3,3,3-trifluoro-2-hydroxypropyl}-1-(4-fluorophenyl)-1H-pyrazole-4-carboxamide] | < 1000 nM | ≥ 40% | < 1000 nM | < 316 nM | ≥ 40%
CCN(CC(O)(CNC(=O)c1cnn(-c2ccc(F)cc2)c1N)C(F)(F)F)C(=O)c1ccc(F)cc1Cl (racemic) [Example 23 (racemic), 5-amino-N-(2-{[[(2-chloro-4-fluorophenyl)car-bonyl](ethyl)amino]methyl}-3,3,3-trifluoro-2-hydroxypropyl)-1-(4-fluorophenyl)-1H-pyrazole-4-carboxamide] | < 1000 nM | ≥ 40% | < 1000 nM | < 316 nM | ≥ 40%
CC(=O)c1ccccc1C(=O)N(C)CC(O)(CNC(=O)c1cnn(-c2ccc(F)cc2)c1N)C(F)(F)F (racemic) [Example 27 (racemic), N-(2-{[[(2-acetylphenyl)car-bonyl](methyl)amino]methyl}-3,3,3-trifluoro-2-hydroxypropyl)-5-amino-1-(4-fluorophenyl)-1H-pyrazole-4-carboxamide] | < 1000 nM | ≥ 40% | < 1000 nM | < 316 nM | ≥ 40%
CN(CC(O)(CNC(=O)c1cnn(-c2ccc(F)cc2)c1N)C(F)(F)F)C(=O)c1ccccc1C(F)(F)F (racemic) [Example 28 (racemic), 5-amino-1-(4-fluorophenyl)-N-{3,3,3-trifluoro-2-hydroxy-2-[(methyl{[2-(trifluoromethyl)phenyl]carbonyl}amino)methyl]propyl}-1H-pyrazole-4-carboxamide] | < 1000 nM | ≥ 40% | < 1000 nM | < 316 nM | ≥ 40%
CCN(CC(O)(CNC(=O)c1cnn(-c2ccc(Cl)cc2)c1N)C(F)(F)F)C(=O)c1ccccc1 (racemic) [Example 32 (racemic), 5-amino-1-(4-chlorophenyl)-N-(2-{[ethyl(phenylcarbonyl)amino]methyl}-3,3,3-trifluoro-2-hydroxypropyl)-1H-pyrazole-4-carboxamide] | < 1000 nM | ≥ 40% |  | < 316 nM | ≥ 40%
CCN(CC(O)(CNC(=O)c1cnn(-c2cc(F)cc(F)c2)c1N)C(F)(F)F)C(=O)c1ccccc1 (racemic) [Example 33 (racemic), 5-amino-1-(3,5-difluorophenyl)-N-(2-{[ethyl(phenylcarbonyl)amino]methyl}-3,3,3-trifluoro-2-hydroxypropyl)-1H-pyrazole-4-carboxamide] | < 1000 nM | ≥ 40% |  | < 316 nM | ≥ 40%
CCN(CC(O)(CNC(=O)c1cnn(-c2cccc(F)c2)c1N)C(F)(F)F)C(=O)c1ccccc1 (racemic) [Example 35 (racemic), 5-amino-N-(2-{[ethyl(phenylcarbonyl)amino]methyl}-3,3,3-trifluoro-2-hydroxypropyl)-1-(3-fluorophenyl)-1H-pyrazole-4-carboxamide] | < 1000 nM | ≥ 40% |  | < 316 nM | ≥ 40%
CCN(CC(O)(CNC(=O)c1cnn(-c2ccc(F)cc2)c1N)C(F)(F)F)C(=O)c1ccccc1F (single isomer, unassigned) [Example 4 Enantiomer 2, 5-Amino-N-[2-({ethyl[(2-fluorophenyl)carbonyl]amino}methyl)-3,3,3-trifluoro-2-hydroxypropyl]-1-(4-fluorophenyl)-1H-pyrazole-4-carboxamide] | < 1000 nM | ≥ 40% |  | < 316 nM | ≥ 40%

Other lines, results leading:

IC50 [1] | Emax ([2]; A549 SPAP cells) | IC50 [2, 4] | IC50 [2, 5] | Emax [3] | SMILES
< 1000 nM | ≥ 40% |  | < 316 nM | ≥ 40% | CCN(CC(O)(CNC(=O)c1cnn(-c2cccc(Cl)c2)c1N)C(F)(F)F)C(=O)c1ccccc1 (racemic) [Example 37 (racemic), 5-amino-1-(3-chlorophenyl)-N-(2-{[ethyl(phenylcar-bonyl)amino]methyl}-3,3,3-trifluoro-2-hydroxypropyl)-1H-pyrazole-4-carboxamide]
< 1000 nM | ≥ 40% |  | < 316 nM | ≥ 40% | CCN(CC(O)(CNC(=O)c1cnn(-c2ccc(F)cc2)c1N)C(F)(F)F)C(=O)c1ncccc1F (racemic) [Example 38 (racemic), N-{2-[({[5-amino-1-(4-fluorophenyl)-1H-pyrazol-4-yl]carbonyl}amino)methyl]-3,3,3-trifluoro-2-hydroxypropyl}-N-ethyl-3-fluoro-2-pyridinecarboxamide]
< 1000 nM | ≥ 40% |  | < 316 nM | ≥ 40% | Nc1c(C(=O)NCC(O)(CN(CCF)C(=O)c2ncccc2F)C(F)(F)F)cnn1-c1ccc(F)cc1 (racemic) [Example 40 (racemic), N-{2-[({[5-amino-1-(4-fluorophenyl)-1H-pyrazol-4-yl]carbonyl}amino)methyl]-3,3,3-trifluoro-2-hydroxypropyl}-3-fluoro-N-(2-fluoroethyl)-2-pyridinecarboxamide]
< 1000 nM | ≥ 40% |  | < 316 nM | ≥ 40% | CCN(CC(O)(CNC(=O)c1cnn(-c2ccccc2)c1N)C(F)(F)F)C(=O)c1ccccc1 (racemic) [Example 43 (racemic), 5-amino-N-(2-{[ethyl(phenylcar-bonyl)amino]methyl}-3,3,3-trifluoro-2-hydroxypropyl)-1-phenyl-1H-pyrazole-4-carboxamide]
